Results from the NIST ThermoML archive (doi:10.1016/j.tca.2013.05.007).

Columns and labels:
[1] = DTA
[2] = molar heat capacity at constant pressure; conditions: 101.33 kPa, Liquid, Large sample (1 g) DSC

CCCCn1cc[n+](C)c1.N#CN=C=[N-] [1-butyl-3-methylimidazolium dicyanamide]
Conditions | Glass transition temperature [°C] | Normal melting temperature [°C] | Triple point temperature [K] | molar heat capacity at constant pressure [J/K/mol]
[1], Crystal 1 | – | -6 | – | –
[1], Crystal 2 | – | – | 225 | –
[1], Glass | -92 | – | – | –
[2], 293.15 K | – | – | – | 372
[2], 294.15 K | – | – | – | 373
[2], 295.15 K | – | – | – | 374
[2], 296.15 K | – | – | – | 375
[2], 297.15 K | – | – | – | 375
[2], 298.15 K | – | – | – | 376
[2], 299.15 K | – | – | – | 377
[2], 300.15 K | – | – | – | 377
[2], 301.15 K | – | – | – | 378
[2], 302.15 K | – | – | – | 378
[2], 303.15 K | – | – | – | 379
[2], 304.15 K | – | – | – | 379
[2], 305.15 K | – | – | – | 380
[2], 306.15 K | – | – | – | 380
[2], 307.15 K | – | – | – | 381
[2], 308.15 K | – | – | – | 381
[2], 309.15 K | – | – | – | 382
[2], 310.15 K | – | – | – | 382
[2], 311.15 K | – | – | – | 382
[2], 312.15 K | – | – | – | 383
[2], 313.15 K | – | – | – | 383
[2], 314.15 K | – | – | – | 384
[2], 315.15 K | – | – | – | 384
[2], 316.15 K | – | – | – | 384
[2], 317.15 K | – | – | – | 385
[2], 318.15 K | – | – | – | 385
[2], 319.15 K | – | – | – | 385
[2], 320.15 K | – | – | – | 386
[2], 321.15 K | – | – | – | 386
[2], 322.15 K | – | – | – | 387
[2], 323.15 K | – | – | – | 387
[2], 324.15 K | – | – | – | 388
[2], 325.15 K | – | – | – | 388
[2], 326.15 K | – | – | – | 388
[2], 327.15 K | – | – | – | 389
[2], 328.15 K | – | – | – | 389
[2], 329.15 K | – | – | – | 390
[2], 330.15 K | – | – | – | 390
[2], 331.15 K | – | – | – | 391
[2], 332.15 K | – | – | – | 391
[2], 333.15 K | – | – | – | 392
